Measurements taken from paper PMC8333062, “Chemical tools for epichaperome-mediated interactome dysfunctions of the central nervous system” (Nature Communications, 2021).

Legend:
[1] = molecular target: T1, CYP2A6 (Homo sapiens, UniProt P11509); experiment: Cytochrome P450 profiling, tranylcypromine; format: in vitro ADME; settings: for % PU-HZ151 remaining: Tranylcypromine
T1 construct: PU-HZ151 (1 µM) was incubated with human liver microsomes (0.5 mg protein mL^−1); tissue Life Technologies HMMCPL; host or cells: human liver microsomes
T1 sequence (P11509 1-494): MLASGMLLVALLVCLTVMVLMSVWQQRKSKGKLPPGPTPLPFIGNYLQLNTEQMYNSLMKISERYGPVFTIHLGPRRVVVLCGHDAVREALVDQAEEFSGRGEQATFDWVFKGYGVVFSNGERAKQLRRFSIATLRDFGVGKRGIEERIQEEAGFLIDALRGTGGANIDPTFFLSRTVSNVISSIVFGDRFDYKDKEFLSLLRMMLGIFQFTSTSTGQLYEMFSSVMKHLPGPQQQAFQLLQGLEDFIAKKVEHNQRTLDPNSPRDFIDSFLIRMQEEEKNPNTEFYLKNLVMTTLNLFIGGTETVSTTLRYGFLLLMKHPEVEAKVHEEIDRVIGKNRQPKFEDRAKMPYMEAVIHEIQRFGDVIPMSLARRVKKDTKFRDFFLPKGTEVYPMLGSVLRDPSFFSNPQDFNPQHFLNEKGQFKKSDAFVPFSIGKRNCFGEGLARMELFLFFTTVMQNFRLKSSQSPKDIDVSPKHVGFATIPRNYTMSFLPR
Description: (§1) To identify cytochrome P450 enzymes responsible for PU-HZ151’s metabolism in human liver microsomes the following procedure was followed. Phosphate buffer (100 mM, pH 7.4) was prepared monthly and stored at 4 °C. Frozen stock solutions of human liver microsomes (Life Technologies; Cat# HMMCPL) were used once after thawing and were not refrozen. NADPH stock solution (50 mM) in distilled water was prepared fresh daily. […] The stock solutions of these P450 inhibitors were prepared in DMSO. […] The concentration of the chemical inhibitors used in the assay were furafylline (10 μM), tranylcypromine (2 μM), ketoconazole (1 μM), troleandomycin (20 μM), orphenadrine (50 μM), montelukast (3 μM), sulfaphenazole (10 μM), benzylnirvanol (1 μM), quinidine (1 μM), and 1-aminobenzotriazole (1 mM) for all the P450 enzymes. Timing of the reactions was started following the addition of NADPH/magnesium chloride mix and PU-HZ151. Time-dependent chemical inhibitors (furafylline, troleandomycin, orphenadrine, and 1-aminobenzotriazole) were preincubated with human microsomes in the presence of NADPH and magnesium chloride for 15 min before the addition of PU-HZ151 and timing of reactions was started after addition of PU-HZ151. […] Following brief vortexing and centrifugation, a 200 µL aliquot of the supernatant was transferred to a tube, and 10 µL of haloperidol (1 µg mL^−1) as internal standard was added. Following brief vortexing and centrifugation, 50 µL of supernatant was added to a 96-well plate for subsequent LC-MS/MS analysis. PU-HZ151 was similarly tested as above in the absence of CYP inhibitors for comparative purposes. All samples were assayed in duplicate. […] This was similarly performed for incubations of PU-HZ151 performed in the absence of CYP inhibitor.

[2] = molecular target: T2, CYP2D6 (Homo sapiens, UniProt P10635); experiment: Cytochrome P450 profiling, quinidine; format: in vitro ADME; settings: for % PU-HZ151 remaining: Quinidine
T2 construct: tissue Life Technologies HMMCPL; host or cells: human liver microsomes
Description: as §1

[3] = Acute toxicity, single IV infusion; format: in vivo, B6D2F1 mice; settings: 2 mg/kg IV once, 14 days
Source text: Samus Therapeutics, Inc. Confidential 07-November-2017 […]
other pathologic tissues, such as brain regions afflicted by neurodegeneration).This unique behavior of PU-AD provides the rationale for its favorable therapeutic index. It also provides the rationale for the use of a 124I-labeled PU-AD as a PET imaging agent to 1. detect tissues associated with stress HSP90 and 2. inform on the biodistribution and PK of PU -AD.
To assess acute toxicity of a single intravenous (IV) infusion of PU-AD, B6D2F1 mice (15 males and 15 females/group) were dosed IV once with either vehicle control or PU-AD at a dose of 2 mg/kg, which corresponds to 200x the maximum intended human dose for the PU-AD PET study. […]
normal behavior throughout. […] No abnormal findings were detected during gross necropsy, while complete histopathology evaluation is still pending. […]
To asses if chronic administration of PU -AD presented any toxicities, a preliminary study in 13 (6 male & 7 female) B6C3F1 mice was conducted. […] Thyroid was evaluated because PU-AD contains an […]
124I-PU-AD radiation dosimetry is a key part of this pilot trial, and 124I-PU-AD radiation dosimetry analyses shall be ongoing during the trial. In brief, region -of-interest (ROI) image analysis of 124I-PU-AD PET data allows organ dosimetry, calculated using the MIRD formalism as […]

T2 sequence (P10635 whole entry): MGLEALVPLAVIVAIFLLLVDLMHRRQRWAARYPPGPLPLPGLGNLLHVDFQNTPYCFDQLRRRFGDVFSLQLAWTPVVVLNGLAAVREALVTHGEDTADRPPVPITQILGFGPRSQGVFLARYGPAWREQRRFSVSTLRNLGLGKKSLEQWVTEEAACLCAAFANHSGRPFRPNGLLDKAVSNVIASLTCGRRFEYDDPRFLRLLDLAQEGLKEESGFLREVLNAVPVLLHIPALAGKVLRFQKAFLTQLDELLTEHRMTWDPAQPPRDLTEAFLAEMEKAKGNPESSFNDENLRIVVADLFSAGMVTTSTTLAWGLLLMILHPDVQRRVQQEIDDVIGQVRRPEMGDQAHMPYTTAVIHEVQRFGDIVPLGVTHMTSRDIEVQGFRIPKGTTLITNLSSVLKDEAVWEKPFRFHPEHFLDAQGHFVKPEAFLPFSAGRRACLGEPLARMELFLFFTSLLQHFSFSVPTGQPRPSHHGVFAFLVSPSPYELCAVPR

## CC(C)(C)CNCCn1c(Sc2cc3c(cc2I)OCO3)nc2c(N)ncnc21 [Compound 85]
[1]; 15 min
  % PU-HZ151 remaining: 57.2%
[1]; 30 min
  % PU-HZ151 remaining: 36.6%
[1]; 60 min
  % PU-HZ151 remaining: 18.4%
[1]; tranylcypromine
  inhibition of PU-HZ151 metabolism: essentially no effect
[2]; 15 min
  % PU-HZ151 remaining: 62.9%
[2]; 30 min
  % PU-HZ151 remaining: 43.9%
[2]; 60 min
  % PU-HZ151 remaining: 26.6%
[2]; quinidine
  inhibition of PU-HZ151 metabolism: 11%
[3]
  acute toxicity: No mortality or morbidity was observed
